Activity calls are given as the source filed them.
What was measured:
[1] = HEp-2 cell cytotoxicity, dose response, cytotoxicity control for RSV inhibitor project, HTS (AID 2410); type: functional; settings: human respiratory syncytial virus
Vero = assay: cells; type: functional, cell-based; settings: Chlorocebus sabaeus
cells [2] = assay: cells
[3] = target: Peroxisome proliferator-activated receptor gamma/Nuclear receptor corepressor 2 (Homo sapiens, UniProt P37231+Q9Y618); assay: Counterscreen for NR2E3 inverse agonists: TR-FRET-based biochemical high throughput dose response assay to identify inverse agonists of the interaction between peroxisome proliferator-activated receptor gamma (PPARg) and nuclear receptor co-repressor 2 (NCOR2).; type: functional
[4] = target: Photoreceptor-specific nuclear receptor (Homo sapiens, UniProt Q9Y5X4); assay: NR2E3 inverse agonists, dose response, biochemical, TR-FRET (AID 463256); type: functional
Sequence of Photoreceptor-specific nuclear receptor (Q9Y5X4 whole entry): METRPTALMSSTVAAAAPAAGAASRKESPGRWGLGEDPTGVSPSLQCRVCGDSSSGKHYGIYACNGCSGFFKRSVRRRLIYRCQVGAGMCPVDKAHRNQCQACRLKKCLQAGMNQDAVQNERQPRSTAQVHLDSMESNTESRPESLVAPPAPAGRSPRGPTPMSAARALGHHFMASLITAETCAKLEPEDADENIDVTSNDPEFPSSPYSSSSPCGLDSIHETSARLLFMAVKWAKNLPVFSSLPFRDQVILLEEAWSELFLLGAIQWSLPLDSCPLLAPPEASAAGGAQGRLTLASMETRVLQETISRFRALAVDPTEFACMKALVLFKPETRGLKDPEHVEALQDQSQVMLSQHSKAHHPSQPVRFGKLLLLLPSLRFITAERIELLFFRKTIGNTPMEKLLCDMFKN

[5] = target: Cyclin-dependent kinase 5/CDK5 activator 1 (Homo sapiens, UniProt Q00535); assay: CDK5/p35 kinase inhibitors, dose response, biochemical, cherry-picked samples, set 2 (AID 504545)
[6] = inhibition of ADP-Glo detection reagents, dose response, artefact control for CDK5 inhibitor project, biochemical, luminescence, cherry-picked samples, set 2 (AID 504546); type: functional
[7] = target: T1, Microphthalmia-associated transcription factor (Homo sapiens, UniProt O75030); assay: TRPM1 promoter luciferase signal decrease, dose response, MITF inhibitor project, cell-based, SK-MEL-5, cherry-picked, set 3 (AID 493073); type: functional
T1 sequence (O75030 whole entry): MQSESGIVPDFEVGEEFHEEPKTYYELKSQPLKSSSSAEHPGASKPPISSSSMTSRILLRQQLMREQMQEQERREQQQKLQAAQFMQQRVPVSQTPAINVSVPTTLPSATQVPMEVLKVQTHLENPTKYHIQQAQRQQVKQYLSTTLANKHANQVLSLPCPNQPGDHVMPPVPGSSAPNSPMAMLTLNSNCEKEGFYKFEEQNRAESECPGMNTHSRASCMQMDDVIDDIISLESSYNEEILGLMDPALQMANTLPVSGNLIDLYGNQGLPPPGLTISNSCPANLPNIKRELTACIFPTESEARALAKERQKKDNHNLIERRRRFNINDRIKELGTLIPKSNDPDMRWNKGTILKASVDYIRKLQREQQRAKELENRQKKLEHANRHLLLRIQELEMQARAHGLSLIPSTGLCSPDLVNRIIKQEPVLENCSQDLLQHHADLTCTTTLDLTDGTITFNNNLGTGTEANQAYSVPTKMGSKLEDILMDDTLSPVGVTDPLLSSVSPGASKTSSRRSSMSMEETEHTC

HEK293 = assay: inhibitors of LMP1-driven NF-kB reporter, dose response, cell-based, HEK293, luciferase, cherry-pick (AID 588343); type: functional; settings: Homo sapiens
[8] = target: Lysosomal acid glucosylceramidase (Homo sapiens, UniProt P04062); assay: Dose response cell-based high throughput screening assay to identify enhancers of beta-glucosidase activity. [Related pubchem assays: 784 ]; type: functional
Sequence of Lysosomal acid glucosylceramidase (P04062 whole entry): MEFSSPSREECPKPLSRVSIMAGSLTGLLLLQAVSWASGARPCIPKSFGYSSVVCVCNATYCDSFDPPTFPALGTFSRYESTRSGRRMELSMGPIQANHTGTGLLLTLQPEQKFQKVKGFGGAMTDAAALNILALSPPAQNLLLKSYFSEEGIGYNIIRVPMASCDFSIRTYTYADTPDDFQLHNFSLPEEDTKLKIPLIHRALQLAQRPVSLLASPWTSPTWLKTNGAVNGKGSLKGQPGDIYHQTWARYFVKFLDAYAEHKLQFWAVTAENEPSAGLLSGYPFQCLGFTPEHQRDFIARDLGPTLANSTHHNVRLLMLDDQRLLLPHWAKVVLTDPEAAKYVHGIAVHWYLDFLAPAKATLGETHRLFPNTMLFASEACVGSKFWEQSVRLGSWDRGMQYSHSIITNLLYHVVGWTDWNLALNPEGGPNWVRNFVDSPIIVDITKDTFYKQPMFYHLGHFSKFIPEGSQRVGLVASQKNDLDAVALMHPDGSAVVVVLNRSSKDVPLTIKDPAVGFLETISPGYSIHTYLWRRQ

Streptococcus = assay: Luminescence Microorganism-Based Dose Response Follow up to Identify Compounds Cytotoxic to Streptococcus. [Related pubchem assays: 1677 (Project Summary), 1915, 1914, 1902 (Retest at Dose), 1900 (Counter Screen), 1662 (Primary HTS)]; type: functional, organism-based
[9] = Luminescence Cell-Based Dose Confirmation HTS to Identify Activators of 5'UTR Stem-Loop Driven Alpha-Synuclein mRNA Translation in H4 Neuroglioblastoma Cells. [Related pubchem assays: 1829 (Project Summary), 1814 (Primary HTS)]; type: functional
[10] = target: Mitogen-activated protein kinase 10 (Homo sapiens, UniProt P53779); assay: Dose response biochemical screening assay for inhibitors of c-Jun N-Terminal Kinase 3 (JNK3). [Related pubchem assays: 746 ]
Sequence of Mitogen-activated protein kinase 10 (P53779 whole entry): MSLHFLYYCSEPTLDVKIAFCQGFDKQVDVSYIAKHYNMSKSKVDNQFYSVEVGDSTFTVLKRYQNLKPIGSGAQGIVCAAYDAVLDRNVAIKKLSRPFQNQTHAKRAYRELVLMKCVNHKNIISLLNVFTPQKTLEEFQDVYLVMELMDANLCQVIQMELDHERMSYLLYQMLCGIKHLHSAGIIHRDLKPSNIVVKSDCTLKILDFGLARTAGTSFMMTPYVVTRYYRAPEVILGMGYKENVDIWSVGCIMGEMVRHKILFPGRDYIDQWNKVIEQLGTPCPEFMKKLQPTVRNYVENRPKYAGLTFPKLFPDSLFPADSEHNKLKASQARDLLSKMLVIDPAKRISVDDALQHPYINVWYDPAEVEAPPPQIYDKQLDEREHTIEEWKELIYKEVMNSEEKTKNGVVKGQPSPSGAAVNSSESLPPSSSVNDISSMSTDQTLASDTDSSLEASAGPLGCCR

[11] = Luminescence Cell-Based Dose Response HTS to Identify Activators of Luciferase Translation or Activity in H4 […] Cells. [Related pubchem assays: 1829 (Project Summary), 1814 (Primary HTS)]; type: functional
H4 = assay: Luminescence Cell-Based Dose Response HTS to Identify Activators of 5'UTR Stem-Loop Driven Prion Protein mRNA Translation in H4 Neuroglioblastoma Cells. [Related pubchem assays: 1829 (Project Summary), 1814 (Primary HTS)]; type: functional; settings: Homo sapiens
Cytochrome P450 2D6 = Cytochrome P450 2D6 (Homo sapiens, UniProt P10635);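 note: CYP2D6 member of a cytochrome P450 panel assay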
Sequence of Cytochrome P450 2D6 (P10635 whole entry): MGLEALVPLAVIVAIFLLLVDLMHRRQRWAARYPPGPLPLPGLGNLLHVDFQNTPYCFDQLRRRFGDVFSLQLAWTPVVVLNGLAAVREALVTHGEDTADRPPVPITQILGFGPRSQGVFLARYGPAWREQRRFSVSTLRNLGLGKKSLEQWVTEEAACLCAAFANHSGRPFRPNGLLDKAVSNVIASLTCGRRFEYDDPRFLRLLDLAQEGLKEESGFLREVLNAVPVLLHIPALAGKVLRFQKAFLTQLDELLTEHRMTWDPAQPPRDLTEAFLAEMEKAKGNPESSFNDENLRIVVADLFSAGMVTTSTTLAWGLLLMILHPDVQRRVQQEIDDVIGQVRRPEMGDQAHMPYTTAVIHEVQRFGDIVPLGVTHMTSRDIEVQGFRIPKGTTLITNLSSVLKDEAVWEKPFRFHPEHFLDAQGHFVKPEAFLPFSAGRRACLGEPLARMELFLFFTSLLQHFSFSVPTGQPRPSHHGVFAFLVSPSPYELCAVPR

[12] = A Cell Based Secondary Assay To Explore Cytotoxicity of Compounds that Sensitize Mycobacterium Tuberculosis to Beta-Lactam Antibiotics.; type: functional
[13] = inhibitors of intracellular T. cruzi replication, confirmation, NIH3T3 host cells, beta-gal luminescence (AID 2044); type: functional, cell-based;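 note: intracellular parasites grown in NIH/3T3 mouse fibroblasts as host cells; luminescent beta-galactosidase reporter signal from transgenic T. cruzi replicating inside host cells; inhibitors lower the luminescence signal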
cells [14] = assay: cells; remark: listed apart in the source
[15] = cytotoxicity toward NIH3T3 fibroblasts, dose response, counter-screen, cell-based, ATP luminescence, mouse fibroblasts (AID 2010); type: functional;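 note: cells exposed to compound for about 90 hours before reading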
[16] = target: Voltage-gated inwardly rectifying potassium channel KCNH2 (Homo sapiens, UniProt Q12809); assay: hERG protection from proarrhythmic block, potency, dose response, cell-based, thallium flux (AID 2121); type: ADME
[17] = target: Glucose-6-phosphate 1-dehydrogenase (Homo sapiens, UniProt P11413); assay: human G6PD enzyme inhibitors, dose response, selectivity assay for P. falciparum G6PD inhibitor project, biochemical, fluorescence (AID 504792); type: functional
NS3 = NS3 (Hepatitis C virus, UniProt A3EZJ3); assay: PubChem AID 2173; set-up: species or system Hepacivirus hominis
[18] = target: T2, Endoribonuclease toxin MazF (Escherichia coli K-12, UniProt P0AE70); assay: MazF toxin RNase activators, dose response, biochemical, fluorescence, single-stranded RNA substrate, uHTS hits (AID 588481); type: functional
T2 sequence (P0AE70 whole entry): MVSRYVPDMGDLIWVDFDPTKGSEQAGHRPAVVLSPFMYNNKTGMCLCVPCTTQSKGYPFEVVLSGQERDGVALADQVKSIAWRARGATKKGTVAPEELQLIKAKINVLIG

Caspase-6 = target: T3, Caspase-6 (Homo sapiens, UniProt P55212); assay: human caspase-6 inhibitors, dose response, biochemical, VEID-R110 fluorescence, cherry-pick (AID 720632)
T3 sequence (P55212 whole entry): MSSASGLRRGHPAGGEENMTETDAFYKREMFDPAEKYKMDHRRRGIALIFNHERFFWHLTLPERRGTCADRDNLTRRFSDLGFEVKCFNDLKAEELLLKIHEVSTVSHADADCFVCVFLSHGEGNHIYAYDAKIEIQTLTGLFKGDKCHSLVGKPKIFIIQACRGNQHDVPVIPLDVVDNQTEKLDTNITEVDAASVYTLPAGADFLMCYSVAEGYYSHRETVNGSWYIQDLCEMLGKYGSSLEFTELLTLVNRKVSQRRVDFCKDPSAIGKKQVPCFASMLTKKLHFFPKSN

[19] = target: T4, Heat shock factor protein 1 (Mus musculus, UniProt P38532); assay: HSF1 potentiators in luciferase reporter cells, confirmation, cell-based, NIH3T3, luminescence, dose retest (AID 435004); type: functional;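 note: stress induced by proteasome inhibitor MG132 added 30 min after compound; luciferase reporter driven by HSF1 response element in NIH3T3 cells; actives raise luminescence as potentiators of the MG132 stress response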
T4 sequence (P38532 whole entry): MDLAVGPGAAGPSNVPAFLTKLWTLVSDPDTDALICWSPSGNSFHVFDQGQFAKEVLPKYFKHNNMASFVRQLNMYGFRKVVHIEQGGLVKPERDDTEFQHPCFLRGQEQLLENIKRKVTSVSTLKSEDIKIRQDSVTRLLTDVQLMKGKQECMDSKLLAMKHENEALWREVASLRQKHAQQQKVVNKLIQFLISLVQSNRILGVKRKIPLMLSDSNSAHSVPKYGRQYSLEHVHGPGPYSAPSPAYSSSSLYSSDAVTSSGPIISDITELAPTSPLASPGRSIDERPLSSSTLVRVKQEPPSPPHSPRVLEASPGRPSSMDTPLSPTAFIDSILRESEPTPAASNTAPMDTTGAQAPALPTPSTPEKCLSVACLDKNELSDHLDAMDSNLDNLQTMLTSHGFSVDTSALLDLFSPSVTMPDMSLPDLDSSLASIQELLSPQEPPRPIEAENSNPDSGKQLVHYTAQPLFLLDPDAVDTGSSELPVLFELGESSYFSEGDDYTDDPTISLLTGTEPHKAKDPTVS

[20] = target: T2, Endoribonuclease toxin MazF; assay: fluorescent RNA oligo signal without MazF, dose response, counter-screen for MazEF activator project, biochemical, fluorescence, single-stranded RNase substrate (AID 588502); type: functional
[21] = target: T5, Heat shock protein HSP 90-alpha (Homo sapiens, UniProt P07900); type: functional, organism-based
[22] = target: T5, Heat shock protein HSP 90-alpha; assay: Luminescence-based dose response biochemical high throughput screening assay for inhibitors of the Heat Shock Protein 90 (HSP90). [Related pubchem assays: 1831 (Summary AID.), 1846 (Confirmation screen.), 1789 (Primary screen.)]
Large T antigen = Large T antigen (Simian virus 40, UniProt P03070); type: functional, Betapolyomavirus macacae;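 note: Confirmatory-stage PubChem screen for compounds that inhibit SV40 T antigen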
[23] = Vero cell cytotoxicity, dose response, cytotoxicity control for Vif-APOBEC3G degradation inhibitor project, Vero cells (AID 1117358); type: functional; settings: Human immunodeficiency virus 1, Vero
Protein Tat = Protein Tat (Human immunodeficiency virus type 1 group M subtype B (isolate HXB2)(HIV-1), UniProt P04608); type: functional;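 note: tat binding to TAR RNA read out by fluorescence polarization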
[24] = target: T6, Voltage-gated N-type calcium channel alpha-1B subunit/Amyloid beta A4 precursor protein-binding family A member 1 (Homo sapiens, UniProt Q00975+Q02410); assay: disruptors of Mint-PDZ/N-type channel peptide interaction – biochemical, HTRF, set 2, SAR follow-up (AID 434980); type: functional
T6 sequence (Q00975 whole entry): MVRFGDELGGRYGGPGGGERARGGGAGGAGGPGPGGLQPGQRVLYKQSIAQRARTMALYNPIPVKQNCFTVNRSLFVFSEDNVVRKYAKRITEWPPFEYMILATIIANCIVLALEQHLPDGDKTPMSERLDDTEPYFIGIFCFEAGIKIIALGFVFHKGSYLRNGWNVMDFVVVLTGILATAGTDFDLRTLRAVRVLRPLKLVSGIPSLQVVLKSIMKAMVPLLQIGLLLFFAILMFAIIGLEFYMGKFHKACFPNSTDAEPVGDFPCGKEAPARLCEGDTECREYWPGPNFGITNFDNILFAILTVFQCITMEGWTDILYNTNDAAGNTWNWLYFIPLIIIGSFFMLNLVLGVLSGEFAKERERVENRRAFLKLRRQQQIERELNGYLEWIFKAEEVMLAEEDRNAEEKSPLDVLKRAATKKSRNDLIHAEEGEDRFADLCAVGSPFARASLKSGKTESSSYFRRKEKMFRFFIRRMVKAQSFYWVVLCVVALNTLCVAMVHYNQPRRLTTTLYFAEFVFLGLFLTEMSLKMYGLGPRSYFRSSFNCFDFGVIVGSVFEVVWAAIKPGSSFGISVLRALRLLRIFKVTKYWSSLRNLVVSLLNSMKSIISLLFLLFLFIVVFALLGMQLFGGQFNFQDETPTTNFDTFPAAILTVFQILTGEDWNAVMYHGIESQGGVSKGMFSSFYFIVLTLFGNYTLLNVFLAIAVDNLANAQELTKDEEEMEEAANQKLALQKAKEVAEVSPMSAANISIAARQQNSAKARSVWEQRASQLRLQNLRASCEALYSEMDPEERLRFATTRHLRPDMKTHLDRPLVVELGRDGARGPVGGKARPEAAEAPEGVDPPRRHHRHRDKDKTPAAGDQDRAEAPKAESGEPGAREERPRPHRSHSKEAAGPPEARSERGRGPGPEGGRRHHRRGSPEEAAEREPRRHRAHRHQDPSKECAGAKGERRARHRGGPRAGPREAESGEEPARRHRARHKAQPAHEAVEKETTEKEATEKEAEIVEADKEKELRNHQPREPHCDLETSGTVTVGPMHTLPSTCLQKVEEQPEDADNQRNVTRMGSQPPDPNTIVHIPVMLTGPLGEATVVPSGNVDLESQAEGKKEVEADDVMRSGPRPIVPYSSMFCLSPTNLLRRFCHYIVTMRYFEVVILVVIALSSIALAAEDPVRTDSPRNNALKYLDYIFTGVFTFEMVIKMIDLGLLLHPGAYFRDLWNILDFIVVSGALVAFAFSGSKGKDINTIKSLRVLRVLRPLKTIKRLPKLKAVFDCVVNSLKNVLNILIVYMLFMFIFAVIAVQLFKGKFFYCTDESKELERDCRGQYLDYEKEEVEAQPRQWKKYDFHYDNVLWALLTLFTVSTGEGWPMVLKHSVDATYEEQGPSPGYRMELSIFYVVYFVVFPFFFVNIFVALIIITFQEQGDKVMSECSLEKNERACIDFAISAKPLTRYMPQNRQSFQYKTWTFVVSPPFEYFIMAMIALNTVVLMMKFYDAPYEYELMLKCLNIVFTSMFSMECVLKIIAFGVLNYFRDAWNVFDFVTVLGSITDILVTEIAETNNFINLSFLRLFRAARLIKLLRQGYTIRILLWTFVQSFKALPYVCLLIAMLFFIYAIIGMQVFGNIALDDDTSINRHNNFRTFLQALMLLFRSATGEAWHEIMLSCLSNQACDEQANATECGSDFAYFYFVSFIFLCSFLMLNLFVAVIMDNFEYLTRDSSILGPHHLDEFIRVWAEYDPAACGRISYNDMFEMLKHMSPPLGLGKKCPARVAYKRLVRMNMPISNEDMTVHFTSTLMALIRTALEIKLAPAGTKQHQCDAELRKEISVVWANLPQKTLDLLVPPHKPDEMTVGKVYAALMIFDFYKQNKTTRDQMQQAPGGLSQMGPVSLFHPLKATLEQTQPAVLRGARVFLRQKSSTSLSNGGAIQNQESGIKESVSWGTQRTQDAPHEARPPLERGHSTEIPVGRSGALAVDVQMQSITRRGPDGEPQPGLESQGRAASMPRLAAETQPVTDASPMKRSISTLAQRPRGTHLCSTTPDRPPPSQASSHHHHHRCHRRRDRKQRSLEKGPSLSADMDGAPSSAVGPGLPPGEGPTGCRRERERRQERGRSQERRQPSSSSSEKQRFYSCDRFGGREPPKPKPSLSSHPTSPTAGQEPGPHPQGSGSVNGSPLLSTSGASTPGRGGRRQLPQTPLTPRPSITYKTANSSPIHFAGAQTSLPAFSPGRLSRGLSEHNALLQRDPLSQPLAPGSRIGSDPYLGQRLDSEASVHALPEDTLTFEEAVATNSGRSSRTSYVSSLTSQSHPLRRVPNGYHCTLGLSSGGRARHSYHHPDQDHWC
T6 sequence (Q02410 whole entry): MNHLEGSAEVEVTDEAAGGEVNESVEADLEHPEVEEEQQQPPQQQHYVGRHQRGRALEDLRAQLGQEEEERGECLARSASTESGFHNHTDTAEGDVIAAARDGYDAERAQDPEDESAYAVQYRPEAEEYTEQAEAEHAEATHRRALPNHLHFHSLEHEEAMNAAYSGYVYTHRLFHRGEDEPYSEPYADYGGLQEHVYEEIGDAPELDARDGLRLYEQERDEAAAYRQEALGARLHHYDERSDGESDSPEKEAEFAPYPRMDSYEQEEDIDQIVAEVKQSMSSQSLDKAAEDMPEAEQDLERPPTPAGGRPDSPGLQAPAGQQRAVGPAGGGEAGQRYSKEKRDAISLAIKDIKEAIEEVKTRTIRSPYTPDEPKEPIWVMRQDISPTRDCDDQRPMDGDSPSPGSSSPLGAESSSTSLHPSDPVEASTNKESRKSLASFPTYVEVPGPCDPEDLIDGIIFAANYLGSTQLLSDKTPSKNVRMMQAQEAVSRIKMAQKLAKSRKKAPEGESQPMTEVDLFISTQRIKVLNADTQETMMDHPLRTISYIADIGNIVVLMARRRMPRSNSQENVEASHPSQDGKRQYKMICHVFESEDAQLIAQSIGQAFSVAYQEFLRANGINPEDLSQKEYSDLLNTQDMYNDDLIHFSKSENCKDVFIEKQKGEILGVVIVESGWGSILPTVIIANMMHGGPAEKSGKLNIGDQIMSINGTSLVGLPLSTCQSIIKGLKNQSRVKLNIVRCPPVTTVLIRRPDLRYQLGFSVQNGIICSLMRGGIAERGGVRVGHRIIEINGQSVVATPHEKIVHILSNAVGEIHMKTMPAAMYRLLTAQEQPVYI

[25] = target: T6, Voltage-gated N-type calcium channel alpha-1B subunit/Amyloid beta A4 precursor protein-binding family A member 1; assay: disruptors of Mint-PDZ/N-type channel peptide interaction – biochemical, HTRF, SAR follow-up (AID 2489); type: functional
[26] = RKO cell viability reduction, dose response, CellTiter-Glo luminescence (AID 1117322); type: functional
[27] = CellTiter-Glo luminescent dose response of DLD-1 viability loss (AID 1117352); type: functional
[28] = cytotoxicity toward Colo320 cells – cell-based, CellTiter-Glo luminescence, IC50, dose response (AID 1117334); type: functional; settings: COLO 320
[29] = Concentration-dependent survival of SW480 colon cancer line, luminescence detection with CellTiter-Glo, half-maximal inhibitory concentration (AID 1117338); type: functional
[30] = cytotoxicity toward HCT116 cells – cell-based, CellTiter-Glo luminescence, IC50, dose response (AID 1117332); type: functional; settings: HCT-116
[31] = cytotoxicity toward HT-29 cells – cell-based, CellTiter-Glo luminescence, IC50, dose response (AID 1117330); type: functional
[32] = HeLa 2N DNA content increase, dose response, cell-based, IC50 (AID 1117349); type: functional
[33] = HeLa 4N DNA content increase, dose response, cell-based, IC50 (AID 1117351); type: functional

## Cc1nn(Cc2c(Cl)cccc2Cl)c(C)c1NC(=O)c1cc(C(C)C)on1
[1]
  CC50: 16.8 µM (active)
Vero
  IC50: 10.5 µM (active)
Cells [2]
  IC50: 11.3 µM (active)

## COc1ccc2cc3cc(C(=O)NCc4cccs4)oc3nc2c1
[3]
  IC50: 12.9 µM (not active)
[4]
  IC50: 10.7 µM (not active)

## N=C(NOC(=O)c1ccccc1)c1ccccn1
[5]
  AC50: 20.6 µM (active)
[6]
  AC50: 37.5 µM (active)
[7]
  AC50: 11.9 µM (active)
HEK293
  AC50: 8.6 µM (active)

## Cc1cccc2sc(NC(=O)CN(C)S(=O)(=O)c3cccs3)nc12
[8]
  EC50: > 10 µM (not active)

## CN(C)c1ccc(C(=O)n2c3ccccc3c3ccccc32)cc1
Streptococcus
  EC50: > 500 µM (not active)

## c1ccc(CNc2ncnc3c2cnn3-c2ccccc2)cc1
[9]
  EC50: > 120 µM (not active)
[10]
  IC50: 75.8 µM (not active)
[11]
  EC50: 3.43 µM (active)
H4
  EC50: > 120 µM (not active)

## CCCCN(CC)S(=O)(=O)c1ccc(C(=O)Nc2nnc(CSC)o2)cc1
[8]
  EC50: > 10 µM (not active)
Cytochrome P450 2D6
  AC50: 35.5 µM (inconclusive)
[12]
  CC50: 13.9 µM (active)

## CCOC(=O)C1CCCN(Cc2ccc(OCc3ccccc3)c(OC)c2)C1 (centres undefined)
[13]
  EC50: < 0.1 µM (active)
Cells [14]
  EC50: 0.01 µM (active)
[15]
  EC50: > 60 µM (not active)

## Cc1ccc(C(=O)CC(=O)COc2ccc(Cl)cc2C)cc1
[16]
  EC50: 0.82 µM (active)

## Cc1ccc2c(C)nc(NC3=NCN(Cc4ccccc4)CN3)nc2c1
[10]
  IC50: > 93.1 µM (not active)

## CC1=CN2C(=N)/C(=C/c3ccc([N+](=O)[O-])o3)C(=O)N=C2S1
[17]
  IC50: > 80 µM (inactive)
NS3
  IC50: 9.08 µM (active)
[18]
  EC50: > 99 µM (inactive)
Caspase-6
  AC50: 5.85 µM (active)
[19]
  EC50: 30.1 µM (inconclusive)
[20]
  EC50: 23.8 µM (inactive)
[21]
  AC50: 2.57 µM (active)

## O=S(=O)(Cc1ccccc1)N(O)c1ccccc1
[22]
  IC50: 0.913 µM (active)

## CCN(C(=O)CN1CCN(c2ccc(O)cc2)CC1)c1c(N)n(Cc2ccccc2)c(=O)[nH]c1=O
Large T antigen
  IC50: 7.74 µM (active)
[23]
  CC50: > 40 µM (active)
Protein Tat
  IC50: 68.5 µM (inconclusive)

## CCC(C)N1C(=O)S/C(=C/c2ccc(Sc3nc4ccccc4[nH]3)o2)C1=O (centres undefined)
Cytochrome P450 2D6
  AC50: 3.98 µM (inconclusive)
[23]
  CC50: 28.7 µM (active)

## CC12C=CC(C)(O1)C1C(=O)N(c3ccc4c(c3)OCO4)C(=O)C12 (centres undefined)
[24]
  IC50: > 56.8 µM (inactive)
[25]
  IC50: > 56.8 µM (inactive)

## O=C(NCCc1cccc(Cl)c1)c1cc(-c2ccco2)nc2ccccc12
[24]
  IC50: > 56.8 µM (inactive)
[25]
  IC50: > 56.8 µM (inactive)

## Nc1nnnn1/N=C/c1ccc(O)cc1
Cells [2]
  IC50: 2.58 µM (active)

## CC(C)(C)[C@H]1CC[C@H](CC2=C(O)C(=O)c3ccccc3C2=O)CC1 [BUPARVAQUONE]
[26]
  IC50: 0.133 µM (active)
[27]
  IC50: 0.218 µM (active)
[28]
  IC50: 0.255 µM (active)
[29]
  IC50: 0.205 µM (active)
[30]
  IC50: 0.227 µM (active)
[31]
  IC50: 3.39 µM (active)
[32]
  IC50: > 10 µM (inactive)
[33]
  IC50: > 10 µM (inactive)

— ChEMBL document CHEMBL1201862, “PubChem BioAssay data set” (2004)
